Assay results from patent US8420592B2, “Methods of treatment using single doses of oritavancin” (The Medicines Company, priority 2008, dated 2013).

Columns and labels:
MSSA or MRSA strains = assay: Neutropenic-mouse thigh infection model, MSSA or MRSA strains, 72 h post-infection; assay type: in vivo, Staphylococcus aureus; settings: independently of their MIC
Experimental: (§1) Methods: Thigh infection was established for 14 clinical SA isolates (3 MSSA and 11 MRSA; MICs 0.0015 to 2 μg/mL) in neutropenic CD-1 mice (n=3/group) with 5×10^5 colony forming units (CFU) of cells. Single intravenous doses of ORI (0.5 to 40 mg/kg) were tested against one MSSA and one MRSA strain. […] Both thighs were harvested and CFU counts were evaluated after 24 h (single doses) or 72 h (HEQ doses) treatment.
(§2) In vivo studies: All studies were performed in accordance with protocols that were approved by the Institutional Animal Care and Use Committee. Thigh infection was established for 14 clinical S. aureus isolates in neutropenic CD-1 mice (19-21 g, n=3/group) with 5×10^5 colony forming units (CFU) of cells in both thighs. In the single dose-response study, the number of bacteria/thigh was monitored 24 h post-infection (PI). In the human equivalent (HEQ) dose-ranging study, the bacterial titer was determined in mouse thighs at 2, 4, 8, 12, 24, 48 and 72 h PI. Thighs were serially diluted and plated on Baird-Parker agar plates to determine the bacterial titer. The limit of detection was 1.69 Log10 CFU/thigh. Bacterial titer decreases were calculated (compared to starting inoculum) in thighs at 72 h PI for each HEQ dose regimen of ORI.
Antibiotherapy: 1) In the single dose response study, mice were treated intravenously (IV) with ORI at doses ranging from 0.4 to 40 mg/kg at lh PI. […]

[1] = Phase 2 cSSSI study: safety and tolerability; assay type: in vivo, human
Experimental: A phase 2, multi-center, randomized, double-blind, parallel, active-comparator study in which three dose regimens of oritavancin were explored as a treatment for cSSSI due to gram-positive pathogens was conducted using: a daily dose (200 mg) administered for three to seven days, a single dose (1200 mg), and an infrequent dose (800 mg dose with option for an additional 400 mg on Day 5).
Patients were randomized through an interactive voice response system in a 1:1:1 ratio to receive either 1) oritavancin […] daily dose: 200 mg IV daily for 3 to 7 days as determined by the investigator based on clinical criteria, 2) oritavancin single dose: 1200 mg oritavancin IV on Day 1, or; 3) oritavancin infrequent dose: 800 mg IV on Day 1 with optional 400 mg IV on Day 5 as determined by investigator based on clinical criteria. During randomization patients were stratified by disease categories of wound infection, major abscess, and cellulitis. Placebo IV (5% dextrose in water) was given to maintain the blind.
Analyses were performed on four patient populations: intent-to-treat (ITT), modified intent-to-treat (MITT), clinically evaluable (CE) and microbiologically evaluable (ME). The ITT population included patients who were randomized to treatment and received any amount of study medication. Two patients who were potentially unblinded were excluded from the ITT population for all efficacy analyses. The MITT population included all ITT patients with a gram-positive pathogen isolated at baseline.

[2] = tested on: MRSA (S. aureus NRS123 and clinical MRSA strains); assay: Neutropenic-mouse thigh infection model; assay type: in vivo, Staphylococcus aureus; settings: for Mean Log CFU/thigh from baseline: 72 h
Experimental: as §1, §2
(§3) Antibiotherapy: 1) In the single dose response study, mice were treated intravenously (IV) with ORI at doses ranging from 0.4 to 40 mg/kg at lh PI. 2) In the HEQ dose-ranging study, starting at 1 h PI, the mice received a multiple IV dose regimen to simulate human drug concentration profile. […]
(§4) Data analysis: The inhibitiory sigmoid Emax model was used to calculate the ED50 of oritavancin (dose resulting in 50% of the maximal bacterial killing) ±95% confidence interval by using the GraphPad Prism software. The statistical calculations to compare bacterial titer from each experimental group were performed according to the Mann-Whitney U test by using StatsDirect software. p-values below 0.05 were considered significant.

[3] = tested on: MSSA (S. aureus ATCC13709 and clinical MSSA strains); assay: Neutropenic-mouse thigh infection model; assay type: in vivo, Staphylococcus aureus; settings: for Log kill / Mean Log CFU/thigh from baseline: 72 h; for Log kill: S. aureus ATCC13709; for Mean Log CFU/thigh from baseline: MSSA (3 strains)
Experimental: as §1, §2, §3, §4

SMILES: CN[C@H](CC(C)C)C(=O)N[C@H]1C(=O)N[C@@H](CC(N)=O)C(=O)N[C@H]2C(=O)N[C@H]3C(=O)N[C@H](C(=O)N[C@H](C(=O)O)c4cc(O)cc(O)c4-c4cc3ccc4O)[C@H](O[C@H]3C[C@](C)(N)[C@@H](O)[C@H](C)O3)c3ccc(c(Cl)c3)Oc3cc2cc(c3O[C@@H]2O[C@H](CO)[C@@H](O)[C@H](O)[C@H]2O[C@H]2C[C@](C)(NCc3ccc(-c4ccc(Cl)cc4)cc3)[C@@H](O)[C@H](C)O2)Oc2ccc(cc2Cl)[C@H]1O [Oritavancin, N-(4-(4-chlorophenyl)benzyl)A82846B]
- Efficacy against MSSA or MRSA strains (MSSA or MRSA strains): active against all tested strains
- Patients with a serious adverse event ([1]; all groups (25 patients)): 8.3%
- Early discontinuation of study medication for lack of efficacy ([1]; all three treatment groups together (10/302)): 3.3%
- Adverse events being mild ([1]; daily dose group): 51.8%
- Adverse events considered mild or moderate in intensity ([1]; daily dose group): 85.7%
- Incidence of serious adverse events ([1]; daily dose group): 11%
- Patients who discontinued study medication due to an adverse event ([1]; daily dose group): 3.0%
- Patients with phlebitis assessed as related to study medication ([1]; daily dose group): 3.0%
- Patients who died during the study (n/total) ([1]; daily dose group, none related to study medication): 3/100
- Adverse events being mild ([1]; infrequent dose group): 60.3%
- Adverse events considered mild or moderate in intensity ([1]; infrequent dose group): 95.2%
- Incidence of serious adverse events ([1]; infrequent dose group): 6.8%
- Patients who discontinued study medication due to an adverse event ([1]; infrequent dose group): 1.0%
- Patients with phlebitis assessed as related to study medication ([1]; infrequent dose group): 8.7%
- Patients with related phlebitis ([1]; infrequent dose group, 800 mg only): 11.8%
- Patients with related phlebitis ([1]; infrequent dose group, 800 mg plus the 400 mg dose): 7.2%
- Patients who died during the study (n/total) ([1]; infrequent dose group, none related to study medication): 2/103
- Adverse events being mild ([1]; single dose group): 58.2%
- Adverse events considered mild or moderate in intensity ([1]; single dose group): 94.5%
- Incidence of serious adverse events ([1]; single dose group): 7.1%
- Patients who died during the study (n/total) ([1]; single dose group): 0/99
- Patients who discontinued study medication due to an adverse event ([1]; single dose group): 3.0%
- Patients with phlebitis assessed as related to study medication ([1]; single dose group): 4.0%
- Serious adverse event investigator-assessed as related to study medication ([1]; single dose group (dyspnoea; hypersensitivity)): Two
- Blood creatine phosphokinase (CPK) increase ([1]; single dose group compared to the daily and infrequent dose groups): higher incidence
- Mean Log CFU/thigh from baseline ([2]; MRSA (3 strains), HEQ dose 100 mg × 3 days): 0.8 Log CFU/thigh
- Mean Log CFU/thigh from baseline ([2]; MRSA (3 strains), HEQ dose 400 mg × 3 days): −2.8 Log CFU/thigh
- Mean Log CFU/thigh from baseline ([2]; MRSA (11 strains), HEQ dose 200 mg × 3 days): −0.9 Log CFU/thigh
- Mean Log CFU/thigh from baseline ([2]; MRSA (11 strains), HEQ dose 1200 mg × 1 day): −2.8 Log CFU/thigh
- ED50 ([2]; Staphylococcus aureus, single IV dose 1 h post-infection, 24 h readout, NRS123 (MRSA), neutropenic CD-1 mice, 95% CI in brackets, read-out: ED50 (dose resulting in 50% of the maximal killing)): 2.4 mg/kg
- ED50 (dose resulting in 50% of the maximal killing) ([2]; single IV dose 1 h post-infection, 24 h readout, NRS123 (MRSA), neutropenic CD-1 mice, 95% CI in brackets): 2.4 (0.8-7.3) mg/kg
- Log kill ([3]; HEQ dose 200 mg): > 2 Log
- Log kill ([3]; HEQ dose 400 mg): > 2 Log
- Log kill ([3]; HEQ dose 1200 mg): > 2 Log
- Mean Log CFU/thigh from baseline ([3]; HEQ dose 100 mg × 3 days): 1.5 Log CFU/thigh
- Mean Log CFU/thigh from baseline ([3]; HEQ dose 200 mg × 3 days): −0.1 Log CFU/thigh
- Mean Log CFU/thigh from baseline ([3]; HEQ dose 400 mg × 3 days): −1.6 Log CFU/thigh
- Mean Log CFU/thigh from baseline ([3]; HEQ dose 1200 mg × 1 day): −2.7 Log CFU/thigh
- ED50 ([3]; Staphylococcus aureus, single IV dose 1 h post-infection, 24 h readout, S. aureus ATCC13709 (MSSA), neutropenic CD-1 mice, 95% CI in brackets, read-out: ED50 (dose resulting in 50% of the maximal killing)): 5.8 mg/kg
- ED50 (dose resulting in 50% of the maximal killing) ([3]; single IV dose 1 h post-infection, 24 h readout, S. aureus ATCC13709 (MSSA), neutropenic CD-1 mice, 95% CI in brackets): 5.8 (3.3-10) mg/kg
